{
  "source": "paper PMC10999112",
  "about": "(Angewandte Chemie (International ed. in English), 2023)",
  "target": "recombinant WT-NSUN2 (Homo sapiens, UniProt Q08J23)",
  "sequence (Q08J23 whole entry)": "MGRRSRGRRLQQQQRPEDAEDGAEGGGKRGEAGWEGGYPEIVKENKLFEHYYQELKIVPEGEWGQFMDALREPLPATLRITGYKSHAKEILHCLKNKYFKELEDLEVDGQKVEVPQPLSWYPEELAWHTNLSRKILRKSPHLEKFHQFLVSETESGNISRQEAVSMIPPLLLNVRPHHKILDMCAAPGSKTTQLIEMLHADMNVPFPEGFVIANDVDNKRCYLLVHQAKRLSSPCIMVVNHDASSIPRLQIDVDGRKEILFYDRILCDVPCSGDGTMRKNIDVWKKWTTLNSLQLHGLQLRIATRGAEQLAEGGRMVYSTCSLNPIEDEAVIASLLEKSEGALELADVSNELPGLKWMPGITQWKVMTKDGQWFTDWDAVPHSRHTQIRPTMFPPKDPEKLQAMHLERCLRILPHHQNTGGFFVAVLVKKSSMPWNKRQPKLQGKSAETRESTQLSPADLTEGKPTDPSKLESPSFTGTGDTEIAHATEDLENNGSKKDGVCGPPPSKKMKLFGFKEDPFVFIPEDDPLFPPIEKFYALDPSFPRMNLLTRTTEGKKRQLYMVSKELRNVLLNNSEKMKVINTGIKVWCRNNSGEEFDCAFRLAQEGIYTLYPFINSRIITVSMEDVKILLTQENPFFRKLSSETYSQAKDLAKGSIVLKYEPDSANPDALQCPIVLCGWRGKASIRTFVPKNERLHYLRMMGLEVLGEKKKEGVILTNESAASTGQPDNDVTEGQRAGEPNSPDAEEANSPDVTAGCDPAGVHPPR",
  "test": "Gel-ABPP in lysate of WT-NSUN2-expressing HEK293T cells",
  "format": "binding",
  "settings": "recombinant WT-NSUN2 in HEK293T cell lysates",
  "data": [
    {"smiles": "Nc1ncnc2c1ncn2[C@@H]1O[C@H](CSCC[C@H](N)C(=O)O)[C@@H](O)[C@H]1O", "note": "[SAH, S-adenosylhomocysteine]", "values": [
      {"measurement": "blockade of MY-11B reactivity with NSUN2", "value": "blocked in a concentration-dependent manner"}
    ]}
  ]
}
